From patent US20250073255A1, “USE OF FA-TYPE LIPID COMPOUNDS IN PREPARATION OF NUCLEIC ACID DELIVERY REAGENT AND RELATED PRODUCT” (BEIJING BAISHIKANG PHARMACEUTICAL TECHNOLOGY (BSJPHARMA) …, priority 2021, published 2025)

Tested on: C57BL/6 male mice
Experiment: In vivo delivery study of lipid nucleic acid mixture (oral gavage, RT-qPCR of PGY-sRNA-26 in tissues)
Parameters: species or system mouse
Conditions: for oral delivery of single-stranded sRNA nucleic acids into mouse blood / oral delivery of single-stranded sRNA nucleic acids into mouse brain tissue / oral delivery of single-stranded sRNA nucleic acids into mouse femur / oral delivery of single-stranded sRNA nucleic acids into mouse heart tissue / oral delivery of single-stranded sRNA nucleic acids into mouse intestinal tissue / oral delivery of single-stranded sRNA nucleic acids into mouse liver tissue / oral delivery of single-stranded sRNA nucleic acids into mouse spleen tissue / oral delivery of single-stranded sRNA nucleic acids into mouse stomach tissue / oral delivery of single-stranded sRNA nucleic acids into mouse kidney tissue / oral delivery of single-stranded sRNA nucleic acids into mouse lung tissue: 100 μg lipid:10 nmol PGY-sRNA-26, sampled after 12 hours; for oral delivery of single-stranded sRNA nucleic acids into mouse heart tissue: vs free uptake group; for oral delivery of single-stranded sRNA nucleic acids into mouse intestinal tissue: intestine; for overall delivery efficacy: delivering nucleic acids into each tissue and blood tested: 100 μg lipid:10 nmol PGY-sRNA-26, all tissues and blood tested
Method: 10 nmol of small RNA (as shown in Table 2) was dissolved in 400 μl of DEPC-treated water in a glass tube, 10 μl of the corresponding lipid stock solution was added such that the lipid mass in the system was 100 μg. The mixture was mixed thoroughly, heated in a 90° C. water bath for 15 minutes, and then cooled naturally to obtain the lipid nucleic acid mixture of lipid and small RNA.
C57BL/6 male mice, approximately 6 weeks old, weighing […], were obtained from Beijing Vital River Laboratory Animal Technology Co., Ltd. The mice were housed in the SPF-grade animal facility at the Animal Center of the Institute of Basic Medical Sciences, Chinese Academy of Medical Sciences. The mice were fasted for 12 hours before gavage administration.
The lipid nucleic acid mixture was prepared following the method described in Example 2. The resultant lipid nucleic acid mixture was orally administered to each mouse at a dose of 100 μg lipid:10 nmol single-stranded 3-methylated small RNA PGY-sRNA-26.
• 1) Blank group (n=4): mice were administered with 500 μl saline by gavage, this group served as a blank control; • 2) Free uptake group (n=4): mice were directly administered with small RNA PGY-sRNA-26 solution (10 nmol/mouse, 500 l) by gavage, this group served as a negative control; • 3) Lipid-treated group (n=4): mice were administered with 500 μl lipid nucleic acid mixture prepared in step 2 by gavage.
After 12 hours of gavage administration, 500 μl blood from the eyeball of each mouse was sampled, added to 1.5 ml Trizol Reagent LS (purchased from Invitrogen), thoroughly mixed for lysis. 3 ml of Trizol Reagent LSwas added to tissue samples and homogenized for complete lysis, wherein the sampled tissues include heart, liver, spleen, lung, kidney, stomach, intestine, brain, blood, femur, pancreas. RNAwas extracted from 1 ml of the blood or the tissue lysate following the steps below: • Centrifuge at 4° C., 12,000 rpm for 5 min, discard the precipitate, transfer Trizol to a new centrifuge tube; • Add chloroform at 200 μL chloroform/mL Trizol, shake well, stand at room temperature for 5 min; • Centrifuge at 4° C., 12,000 rpm for 15 min; • Take the upper aqueous phase to another centrifuge tube, add isopropanol at 0.4 mL isopropanol/mL Trizol, mix well, and stand at low temperature for 10-20 min; • Centrifuge at 4° C., 12,000 rpm for 15 min, discard the supernatant, RNA precipitated at the bottom of the tube; • Add 1 mL of 75% ethanol, gently shake the centrifuge tube, suspend the precipitate; • Centrifuge at 4° C., 12,000 rpm for 15 min, discard the supernatant, add 1 mL of 75% ethanol, gently shake the centrifuge tube, suspend the precipitate; • Centrifuge at 4° C., 12,000 rpm for 15 min, discard the supernatant, air-dry at room temperature, dissolve RNA samples in 50 μL RNase-free H2O, measure OD value to quantify RNA concentration. 3.3 Reverse Transcription of sRNA to cDNA:
sRNA was reverse transcribed to cDNA using the High-Capacity cDNA Reverse Transcription Kit (Applied Biosystems, cat. no. 4368813) by stem-loop method (see, e.g., “Real-time quantification of microRNAs by stem-loop RT-PCR, Nucleic Acids Res. 2005 Nov. 27; 33(20):e179”, incorporated herein by reference). The reverse transcription system is as follows: Template RNA (200 ng/μL) 10 μL, 10×RT Buffer 2.0 μL, 25×dNTP Mix (100 mM) 0.8 μL, U6 RT stem-loop primer (10 μM) 2.0 μL, PGY-sRNA-26 RT stem-loop primer (10 μM) 2.0 μL, MultiScribe™ Reverse Transcriptase (50 U/μL) 1.0 μL, RNAse Inhibitor (40 U/μL) 1.0 μL, nuclease-free H2O 1.2 μL. After transient centrifugation, the reverse transcription system was placed in a PCR machine with the following reaction conditions: (1) 25° C., 10 min; (2) 37° C., 120 min; (3) 85° C., 5 min; (4) 4° C., stop reaction. After the reaction, add 20 μL RNAse-free ddH2O, adjust the final volume to 40 μL. […]

SMILES | oral delivery of single-stranded sRNA nucleic acids into mouse blood | oral delivery of single-stranded sRNA nucleic acids into mouse brain tissue | oral delivery of single-stranded sRNA nucleic acids into mouse femur | oral delivery of single-stranded sRNA nucleic acids into mouse heart tissue | oral delivery of single-stranded sRNA nucleic acids into mouse intestinal tissue | oral delivery of single-stranded sRNA nucleic acids into mouse liver tissue | oral delivery of single-stranded sRNA nucleic acids into mouse spleen tissue | oral delivery of single-stranded sRNA nucleic acids into mouse stomach tissue | oral delivery of single-stranded sRNA nucleic acids into mouse kidney tissue | oral delivery of single-stranded sRNA nucleic acids into mouse lung tissue | overall delivery efficacy: delivering nucleic acids into each tissue and blood tested
CCCCCCCCCC(N)=O [Lipid 573, Decanamide] | can effectively orally deliver | can effectively orally deliver | can effectively orally deliver | can effectively orally deliver | can effectively orally deliver | can effectively orally deliver | can effectively orally deliver | can effectively orally deliver | – | – | –
CCCCCCCCCCCCCCC=O [Lipid 574] | can effectively orally deliver | can effectively orally deliver | can effectively orally deliver | can effectively orally deliver | – | can effectively orally deliver | can effectively orally deliver | can effectively orally deliver | can effectively orally deliver | – | –
CCCCCCCCCCCCCCCC(=O)NCCO [Lipid 578, N-(2-hydroxyethyl)hexadecanamide] | can effectively orally deliver | can effectively orally deliver | can effectively orally deliver | can effectively orally deliver | – | can effectively orally deliver | can effectively orally deliver | can effectively orally deliver | can effectively orally deliver | can effectively orally deliver | –
CCCCCCCCCCCCCC(C)=O [Lipid 593, pentadecan-2-one] | can effectively orally deliver | can effectively orally deliver | can effectively orally deliver | can effectively orally deliver | can effectively orally deliver | can effectively orally deliver | can effectively orally deliver | can effectively orally deliver | can effectively orally deliver | can effectively orally deliver | best delivery efficacy
CCCCCCCCCCCCCC=O [Lipid 594] | can effectively orally deliver | can effectively orally deliver | can effectively orally deliver | can effectively orally deliver | can effectively orally deliver | can effectively orally deliver | can effectively orally deliver | can effectively orally deliver | can effectively orally deliver | can effectively orally deliver | best delivery efficacy
N[C@@H](CCCC(=O)O)C(=O)O [Lipid 595, (2S)-2-aminohexanedioic acid] | can effectively orally deliver | can effectively orally deliver | can effectively orally deliver | can effectively orally deliver | can effectively orally deliver | can effectively orally deliver | can effectively orally deliver | can effectively orally deliver | can effectively orally deliver | can effectively orally deliver | best delivery efficacy
CC(C(=O)O)C(=O)O [Lipid 596, 2-methylpropanedioic acid] | can effectively orally deliver | can effectively orally deliver | can effectively orally deliver | can effectively orally deliver | can effectively orally deliver | can effectively orally deliver | can effectively orally deliver | can effectively orally deliver | can effectively orally deliver | can effectively orally deliver | best delivery efficacy
CC(C)(CC(=O)O)CC(=O)O [Lipid 598, 3,3-dimethylpentanedioic acid] | can effectively orally deliver | can effectively orally deliver | can effectively orally deliver | can effectively orally deliver | can effectively orally deliver | can effectively orally deliver | can effectively orally deliver | can effectively orally deliver | can effectively orally deliver | can effectively orally deliver | best delivery efficacy
